pIC50: −log10 of the molar value. Where two headings read alike, the source gives them in different places.
Key:
[1] = test system: 80S14 (p21-deficient) cells; assay: Cytotoxicity assay using isogenic cell lines: IC50 in 80S14 (p21-deficient) cells, SRB; type: cell-based, human; settings: for pIC50: SRB
Procedure, shortened: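 IC50 is the concentration halving proliferation relative to untreated controls, read from SRB absorbance (560 nm) after TCA fixation. Test agent dilutions (5 pM–50 μM or 170 pg/ml–10 μg/ml) were left on p21-deficient 80S14 cells (12,000/well, pre-incubated overnight) for 5 days at 37 °C.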

LoVo Colon cell line = assay: Cytotoxicity assay using LoVo colon cell line, SRB; type: cell-based; settings: read-out: Inhibition of LoVo
Procedure, shortened: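 Growth inhibition read by sulforhodamine B after 4-day compound exposure at 37 °C. Colon LoVo cells plated at 4000 per well in RPMI/10% FBS a day earlier; doses ranged 5 pM-20 μM or 170 pg/ml-10 μg/ml. IC50 is the concentration halving proliferation versus untreated wells.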

[2] = Homo sapiens, 120 h, 80S14 (p21-deficient) cells, 5 days, class symbols, read-out: IC50 for 80S14
[3] = Homo sapiens, 96 h, Cellular activity in LoVo cell, 4 days incubation, SRB
[4] = Homo sapiens, 120 h, 80S14 p21-deficient cells, 5 days incubation, read-out: IC50 for 80SI4
[5] = Homo sapiens, 96 h, LoVo colon cells, 4 days incubation, SRB

O=C(c1cccs1)c1cnn2c(-c3ccc(F)c(N(C(=O)c4ccccc4Cl)C(=O)c4ccccc4Cl)c3)ccnc12 [Example 438, 2-Chloro-N-(2-chlorobenzoyl)-N-{2-fluoro-5-[3-(thien-2-ylcarbonyl)pyrazolo[1,5-a]pyrimidin-7-yl]phenyl}benzamide]
pIC50 [1, 2]: > 6.00 | pIC50 (LoVo Colon cell line; [3]): > 7.00

Cc1cc(C)cc(-c2cnn3c(-c4cccc(-c5nnn(Cc6ccccn6)n5)c4)ccnc23)c1 [Example 495, 3-(3,5-Dimethylphenyl)-7-{3-[2-(pyridin-2-ylmethyl)-2H-tetrazol-5-yl]phenyl}pyrazolo[1,5-a]pyrimidine]
pIC50 [1, 2]: 4.30 to 5.00 | pIC50 (LoVo Colon cell line; [3]): 6.00 to 7.00

O=C(Cc1cccnc1)Nc1cccc(-c2ccnc3c(C(=O)c4cccs4)cnn23)c1 [Example 439, 2-Pyridin-3-yl-N-{3-[3-(thien-2-ylcarbonyl)pyrazolo[1,5-a]pyrimidin-7-yl]phenyl}acetamide]
pIC50 [1, 2]: 5.00 to 6.00 | pIC50 (LoVo Colon cell line; [3]): > 7.00

O=C(c1cccs1)c1cnn2c(-c3cccc(-c4nnn(CCN5CCCCC5)n4)c3)ccnc12 [Example 512, (7-{3-[2-(2-Piperidin-1-ylethyl)-2H-tetraazol-5-yl]phenyl}pyrazolo[1,5-a]pyrimidin-3-yl)(thien-2-yl)methanone]
pIC50 [1, 2]: 5.00 to 6.00 | pIC50 (LoVo Colon cell line; [3]): 6.00 to 7.00

CC(C)Cn1nnc(-c2cccc(-c3ccnc4c(C(=O)c5cccs5)cnn34)c2)n1 [Example 504, {7-[3-(2-Isobutyl-2H-tetraazol-5-yl)phenyl]pyrazolo[1,5-a]pyrimidin-3-yl}(thien-2-yl)methanone]
pIC50 [1, 2]: > 6.00 | pIC50 (LoVo Colon cell line; [3]): 6.00 to 7.00

O=C(Nc1cccc(-c2ccnc3c(C(=O)c4cccs4)cnn23)c1)c1ccccc1Cl [Example 95, 2-chloro-N-{3-[3-(thien-2-ylcarbonyl)pyrazolo[1,5-a]pyrimidin-7-yl]phenyl}benzamide]
pIC50 [1, 4]: > 6.00 | pIC50 (LoVo Colon cell line; [5]): > 7.00

tert-Butyl 4-[2-oxo-2-({3-[3-(thien-2-ylcarbonyl)pyrazolo[1.5-a]pyrimidin-7-yl]phenyl}amino)ethyl]piperidine-1-carboxylate [Example 392]
pIC50 ([1]; 80S14 (p21-deficient) cells, 5 days, class symbols, read-out: IC50 for 80S14): > 6.00 | pIC50 (LoVo Colon cell line; Cellular activity in LoVo cell, 4 days incubation, SRB): > 7.00

O=C(Nc1cccc(-c2ccnc3c(C(=O)c4cccs4)cnn23)c1)NC1CC1 [Example 169, N-cyclopropyl-N′-{3-[3-(thien-2-ylcarbonyl)pyrazolo[1,5-a]pyrimidin-7-yl]phenyl}urea]
pIC50 [1, 4]: 5.00 to 6.00 | pIC50 (LoVo Colon cell line; [5]): 6.00 to 7.00

O=C(O)c1cc(Cl)c(Cl)cc1C(=O)Nc1cccc(-c2ccnc3c(C(=O)c4cccs4)cnn23)c1 [Example 446, 4,5-Dichloro-2-[({3-[3-(thien-2-ylcarbonyl)pyrazolo[1,5-a]pyrimidin-7-yl]phenyl}amino)carbonyl]benzoic acid]
pIC50 [1, 2]: 4.30 to 5.00 | pIC50 (LoVo Colon cell line; [3]): 4.70 to 6.00

CC(C)CC(=O)Nc1cccc(-c2ccnc3c(-c4cccc(C=O)c4)cnn23)c1 [Example 487, N-{3-[3-(3-Formylphenyl)pyrazolo[1,5-a]pyrimidin-7-yl]phenyl}-3-methylbutanamide]
pIC50 [1, 2]: 4.30 to 5.00 | pIC50 (LoVo Colon cell line; [3]): 4.70 to 6.00

O=C(NCC1CCCO1)Nc1cccc(-c2ccnc3c(C(=O)c4cccs4)cnn23)c1 (centres unmarked) [Example 163, N-(tetrahydrofuran-2-ylmethyl)-N′-{3-[3-(thien-2-ylcarbonyl)pyrazolo[1,5-a]pyrimidin-7-yl]phenyl}urea]
pIC50 [1, 4]: > 6.00 | pIC50 (LoVo Colon cell line; [5]): 6.00 to 7.00

CCn1nnc(-c2cccc(-c3ccnc4c(-c5cc(C)cc(C)c5)cnn34)c2)n1 [Example 496, 3-(3,5-Dimethylphenyl)-7-[3-(2-ethyl-2H-tetrazol-5-yl)phenyl]pyrazolo[1,5-a]pyrimidine]
pIC50 [1, 2]: 5.00 to 6.00 | pIC50 (LoVo Colon cell line; [3]): 6.00 to 7.00

Cc1cc(C)cc(-c2cnn3c(-c4cccc(-c5nnn(Cc6cccnc6)n5)c4)ccnc23)c1 [Example 494, 3-(3,5-Dimethylphenyl)-7-{3-[2-(pyridin-3-ylmethyl)-2H-tetrazol-5-yl]phenyl}pyrazolo[1,5-a]pyrimidine]
pIC50 [1, 2]: 5.00 to 6.00 | pIC50 (LoVo Colon cell line; [3]): 6.00 to 7.00

O=C(O)CCC(=O)Nc1cccc(-c2ccnc3c(C(=O)c4cccs4)cnn23)c1 [Example 442, 4-Oxo-4-({3-[3-(thien-2-ylcarbonyl)pyrazolo[1,5-a]pyrimidin-7-yl]phenyl}amino)butanoic acid]
pIC50 [1, 2]: 4.30 to 5.00 | pIC50 (LoVo Colon cell line; [3]): 4.70 to 6.00

O=C(CC1CCNCC1)Nc1cccc(-c2ccnc3c(C(=O)c4cccs4)cnn23)c1 [Example 393, 2-Piperidin-4-yl-N-{3-[3-(thien-2-ylcarbonyl)pyrazolo[1,5-a]pyrimidin-7-yl]phenyl}acetamide]
pIC50 [1, 2]: 5.00 to 6.00 | pIC50 (LoVo Colon cell line; [3]): 6.00 to 7.00

O=C(Nc1cc(-c2ccnc3c(C(=O)c4cccs4)cnn23)ccc1F)c1ccccc1F [Example 375, 2-fluoro-N-{2-fluoro-5-[3-(thien-2-ylcarbonyl)pyrazolo[1,5-a]pyrimidin-7-yl]phenyl}benzamide]
pIC50 [1, 2]: > 6.00 | pIC50 (LoVo Colon cell line; [3]): > 7.00

O=C(Nc1cccc(-c2ccnc3c(C(=O)c4cccs4)cnn23)c1)OCCCN1CCOCC1 [Example 425, 3-Morpholin-4-ylpropyl 3-[3-(thien-2-ylcarbonyl)pyrazolo[1,5-a]pyrimidin-7-yl]phenylcarbamate]
pIC50 [1, 2]: 5.00 to 6.00 | pIC50 (LoVo Colon cell line; [3]): 6.00 to 7.00

O=C(NCCc1ccccc1)Nc1cccc(-c2ccnc3c(C(=O)c4cccs4)cnn23)c1 [Example 2, N-(2-phenylethyl)-N′-{3-[3-(thien-2-ylcarbonyl)pyrazolo[1,5-a]pyrimidin-7-yl]phenyl}urea]
pIC50 [1, 4]: 5.00 to 6.00 | pIC50 (LoVo Colon cell line; [5]): 6.00 to 7.00

CC(C)CC(=O)Nc1ccc(Cl)c(-c2ccnc3c(C(=O)c4cccs4)cnn23)c1 [Example 339, N-{4-Chloro-3-[3-(thien-2-ylcarbonyl)pyrazolo[1,5-a]pyrimidin-7-yl]phenyl}-3-methylbutanamide]
IC50 ([1]; Homo sapiens, 80S14, 120 h, read-out: IC50 for 80S14 (uM)): 1 to 10 µM | pIC50 (LoVo Colon cell line; Homo sapiens, LoVo, 96 h): 6.00 to 7.00

O=C(Nc1cc(-c2ccnc3c(C(=O)c4cccs4)cnn23)ccc1F)c1ccccc1Cl [Example 376, 2-Chloro-N-{2-fluoro-5-[3-(thien-2-ylcarbonyl)pyrazolo[1,5-a]pyrimidin-7-yl]phenyl}benzamide]
pIC50 [1, 2]: > 6.00 | pIC50 (LoVo Colon cell line; [3]): > 7.00

O=C(Nc1cccc(-c2ccnc3c(C(=O)c4cccs4)cnn23)c1)c1c(F)cccc1F [Example 359, 2,6-Difluoro-N-{3-[3-(thien-2-ylcarbonyl)pyrazolo[1,5-a]pyrimidin-7-yl]phenyl}benzamide]
pIC50 [1, 2]: > 6.00 | pIC50 (LoVo Colon cell line; [3]): > 7.00

CCn1nnc(-c2cccc(-c3ccnc4c(C(=O)c5cccs5)cnn34)c2)n1 [Example 502, {7-[3-(2-Ethyl-2H-tetraazol-5-yl)phenyl]pyrazolo[1,5-a]pyrimidin-3-yl}(thien-2-yl)methanone]
pIC50 [1, 2]: 5.00 to 6.00 | pIC50 (LoVo Colon cell line; [3]): 6.00 to 7.00

O=C(c1cccs1)c1cnn2c(-c3cccc(-c4nnn(CC5CCC5)n4)c3)ccnc12 [Example 505, (7-{3-[2-(Cyclobutylmethyl)-2H-tetraazol-5-yl]phenyl}pyrazolo[1,5-a]pyrimidin-3-yl)(thien-2-yl)methanone]
pIC50 [1, 2]: > 6.00 | pIC50 (LoVo Colon cell line; [3]): > 7.00

O=C(O)CCCC(=O)Nc1cccc(-c2ccnc3c(C(=O)c4cccs4)cnn23)c1 [Example 444, 5-Oxo-5-({3-[3-(thien-2-ylcarbonyl)pyrazolo[1,5-a]pyrimidin-7-yl]phenyl}amino)pentanoic acid]
pIC50 [1, 2]: 4.30 to 5.00 | pIC50 (LoVo Colon cell line; [3]): 4.70 to 6.00

CCCCCNC(=O)Nc1cccc(-c2ccnc3c(C(=O)c4cccs4)cnn23)c1 [Example 165, N-pentyl-N′-{3-[3-(thien-2-ylcarbonyl)pyrazolo[1,5-a]pyrimidin-7-yl]phenyl}urea]
pIC50 [1, 4]: > 6.00 | pIC50 (LoVo Colon cell line; [5]): 6.00 to 7.00

Source: patent US20060063784A1, “Method of using substituted pyrazolo [1,5-a] pyrimidines” (priority 2004, published 2006)
